Laboratory results taken from BigSolDB 2.1.

O.O=C([O-])[C@H](O)[C@@H](O)[C@H](O)[C@H](O)CO.O=C([O-])[C@H](O)[C@@H](O)[C@H](O)[C@H](O)CO.[Ca+2]
solubility (mole fraction)
Conditions | in acetonitrile | in ethanol | in methanol | in n-propanol | in water
279.15 K | 4.28e-06 | 9.52e-06 | 1.15e-05 | 5.01e-06 | –
279.65 K | – | – | – | – | 0.000997
283.15 K | 4.56e-06 | 1.06e-05 | 1.26e-05 | 5.83e-06 | –
284.65 K | – | – | – | – | 0.00108
288.15 K | 5.33e-06 | 1.29e-05 | 1.46e-05 | 7.78e-06 | –
289.15 K | – | – | – | – | 0.0012
293.15 K | 7.75e-06 | 1.51e-05 | 1.77e-05 | 1.04e-05 | –
294.15 K | – | – | – | – | 0.00129
298.15 K | 1.02e-05 | 1.73e-05 | 1.95e-05 | 1.33e-05 | –
299.15 K | – | – | – | – | 0.00146
303.15 K | 1.24e-05 | 1.99e-05 | 2.34e-05 | 1.62e-05 | 0.00165
308.15 K | – | – | – | – | 0.00199
308.65 K | 1.64e-05 | 2.32e-05 | 2.65e-05 | – | –
313.15 K | – | – | – | – | 0.00227
313.65 K | 1.99e-05 | 2.75e-05 | 2.99e-05 | – | –
318.15 K | 2.39e-05 | 3.04e-05 | 3.5e-05 | – | 0.00269
323.15 K | – | – | – | – | 0.00311
